Here are results for one compound from paper PMC7180728, “Novel Anthraquinone Compounds Inhibit Colon Cancer Cell Proliferation via the Reactive Oxygen Species/JNK Pathway” (Molecules, 2020).

A word on the IC50: it is the concentration that inhibits the measured activity by half. A word on the viability: it is the share of living cells, or the viability signal relative to a control. High values mean better survival, low ones a greater loss of cells.

The test system of one assay is MCF-7. As to the kind of experiment: MTT cell proliferation assay, MCF-7. It counts as cell-based. The settings on record: Homo sapiens, MCF7, MCF-7 breast cancer, 48 h. How it is done: (§1) The effects of the synthesized amide anthraquinone derivatives on the proliferative activity of eight human cancerous cell lines (EC9706, MCF-7, SGC-7901, HepG2, QBC939, HeLa, HCT116 and SW480) in addition to two normal human cell lines (colorectal FHC and liver HL7702) were evaluated using the standard MTT assay.
(§2) The human esophageal cancer cell line EC9706 was obtained from Cancer Hospital and Institute by Prof. Ming Rong Wang, Chinese Academy Medical of Sciences. The human colorectal carcinoma cell lines HCT116 and SW480, hepatoma cell line HepG2, cervical carcinoma cell line HeLa, breast cancer cell line MCF-7, gastric cancer cell line SGC-7901, cholangiocarcinoma cell line QBC939, normal fetal colon cell line FHC and liver cell line HL-7702 were obtained from the Cell Bank of the Shanghai Chinese Academy of Sciences. All cells were cultured in RPMI 1640 medium containing 100 U/mL penicillin and streptomycin and 10% fetal bovine serum and maintained at 37°C under a 5% CO2 atmosphere.
(§3) We analyzed the inhibitory effects of eight anthraquinone-amino acid derivatives on the proliferation of eight tumor cell lines and two normal cell lines in vitro using MTT assays. Cells were added to a 96-well plate with (5,000 cells per well in 100 µL RPMI-1640 medium). Cells were treated with different concentrations (10–100 μg/mL) of 8a–8h for 48 h and then incubated with 20 μL MTT (5 mg/mL) for another 4 h at 37°C. DMSO (150 μL) was then added to each well to dissolve the formazan crystals. The absorbance of each well was read at 490 nm on a microtiter plate ELISA reader. The mean values were obtained from a minimum of three parallel experiments. IC50 values were calculated.
In general terms: Formazan colour is commonly taken as a measure of viable cells.

The next assay has as its system SW480. Put plainly: MTT cell proliferation assay, SW480. It counts as cell-based. The settings on record: Homo sapiens, SW480 colon cancer, 48 h. Here is the method: as §1, §2, §3
The subject of assay [1] is intracellular ROS in HCT116 cells. Put plainly: Detection of ROS by DCFH-DA, flow cytometry. In kind it is cell-based, human. Particulars: compared to DMSO-treated control. Here is the method:
Intracellular ROS are key factors in the activation of many signaling pathways, involved in a variety of biological functions including apoptosis and necrosis. High levels of ROS are capable of inducing tumor cell apoptosis. We evaluated the ability of the compounds to induce ROS by flow cytometric analysis of the fluorescent probe DCFH-DA. […] Next, we investigated ROS production before and after induction with 8a and NAC (N-acetyl-L-cysteine).
Cells were added to a 6-well plate (1 × 10^4/well) and incubated for 24 h to allow adherence. Set 0.1% DMSO as the control group, 8a as the treatment group, NAC as the treatment group, 8a + NAC as the treatment group. Among them, in the 8a + NAC treatment group, 8a was added after 5 mM NAC treatment for 1 h. Cells that had been treated for 24 h were collected. The cells were then washed three times with PBS and incubated with 10 μM DCFH-DA for 30 min in the dark. ROS levels were analyzed by flow cytometry.
A general note: A flow cytometer gives signals particle by particle.

The next assay deals with HCT116 cells. Put plainly: MTT cell viability with or without zVAD-FMK. It counts as cell-based, human. Particulars: Homo sapiens, HCT-116, 8a 20 μg/mL alone, 24 h. The text has this: (§4) Caspases represent a key molecular group in the regulation of apoptosis. In caspases, there is an upstream and downstream relationship between the initiator of apoptosis and executioner. Caspase 3 is one of the key executers of apoptosis, as it is either partially or totally responsible for the proteolytic cleavage of many key proteins. For example, when caspase 9 is activated, it activates caspase 3, which ultimately triggers cell apoptosis. After detecting the expression of the corresponding Bcl-2 family proteins after 8a treatment by western blotting, we went on to detect the expression levels of PARP, caspase 9, cleaved caspase 9, caspase 3, and cleaved caspase 3 proteins. […] After 24 h of treatment with zVAD-FMK, cell viability is 93%.
Figure 7 Effect of 8a on apoptosis-related protein expression. […] PARP, caspase 3, cleaved caspase 3, caspase 9, cleaved caspase 9, Bcl-2, phosphorylated Bcl-2, Bcl-XL, phosphorylated Bcl-xL and Bax were detected by western blot analysis; β-actin was used as a loading control in each lane. Representative data of three independent experiments are shown; (C) and (D) Grayscale analysis of the relative expression of apoptosis-related proteins detected by Western blotting. […] (E) Cells were exposed to 8a (20 μg/mL) and/or zVAD-FMK ([…]) for 24 h, and cell viability was measured by MTT assay. […]

In another assay the test system is QBC939. Put plainly: MTT cell proliferation assay, QBC939. It counts as cell-based. The settings on record: Homo sapiens, QBC939 cholangiocarcinoma, 48 h. Here is the method:
as §1, §2, §3

The next assay has as its system HeLa. Put plainly: MTT cell proliferation assay, HeLa. In kind it is cell-based. The settings on record: Homo sapiens, HeLa cervical cancer, 48 h. How it is done:
as §1, §2, §3

In assay [2] the test system is caspase 9, cleaved caspase 9, caspase 3, cleaved caspase 3. As to the kind of experiment: Western blot, caspases. In kind it is cell-based, human. The settings on record: HCT116, western blot.
Description: as §4
The expression of signaling pathway-related proteins was detected by western blot analysis. Cell (1 × 10^6) were plated in 90-mm dishes and treated with 8a for 24 h. The cells were treated with NAC in the same way as in step 4.7. Resuspend the cells in Buffer A (1 mM EDTA, 1 mM PMSF, 0.28 μg/mL apotinin, 50 μg/mL leupeptin, 7 μg/mL pepstain A) and transferred to a 1 mL glass homogenizer and pull up and down 30 times in an ice bath. Cells were collected and centrifuged (1000 g × 10 min, 4 °C). […] Protein concentrations in the supernatant were determined by using a Minbio BCA protein assay kit. […]
Background: A western blot detects proteins with antibodies after separation by electrophoresis.

The subject of another assay is FHC. Put plainly: MTT cell proliferation assay, normal colorectal cells FHC. Particulars: FHC normal human colorectal mucosa, 48 h. In kind it is cell-based. Here is the method:
as §1, §2, §3

Converted amounts (≈) assume the structure as drawn.

Take `CC(C)CC(NC(=O)c1ccc2c(c1[N+](=O)[O-])C(=O)c1ccccc1C2=O)C(=O)O` (stereo not drawn) [Compound 8a, N-[(9,10-dihydro-1-nitro-9,10-dioxo-2-anthracenyl)carbonyl-leucine]]: the IC50 is 33.34 ± 0.28 µg/mL (≈ 81.2 µM) with MCF-7; 31.09 ± 0.1 µg/mL (≈ 75.8 µM) with SW480; 43.13 ± 0.05 µg/mL (≈ 105 µM) in the assay on QBC939; 29.75 ± 0.15 µg/mL (≈ 72.5 µM) in the assay on HeLa; over 1000 µg/mL with FHC. Moreover, the “ROS levels (in words)” value in assay [1] is “increase ROS levels in a dose-dependent manner”. In the assay on HCT116 cells, this compound came in with a viability at 20 µg/mL of 38%. Moreover, in assay [2], the “expression of cleaved caspase 9 and cleaved caspase 3” value is “increased in a dose-dependent manner”. In addition, the “caspase 9 and caspase 3 expression levels” value in assay [2] (with increasing 8a concentration) is “gradually decreased”.
